Patent EP1505064A1, “2-Aminopyrimidine derivatives” (Bayer HealthCare AG, priority 2003, dated 2005)
Structures can show the parent of a compound that is named as a salt.

Molecular target: human H4 (Homo sapiens, UniProt Q9H3N8)
Experiment: Calcium mobilization in CHO cells transfected with human H4 (Assay 1)
Type: cell-based
Conditions: calcium mobilization induced by 100 nM histamine in CHO-H4 cells; compounds at purity of about 40 to 90%; read-out: Activity Class
Method: [Calcium Mobilization in CHO cells transfected with human H4] (Assay1)
A fusion construct consisting of the n-terminal part of H4 and the C-terminal part of the G protein Gα 6 was transfected into CHO cells containing the aequorin-controlled luciferase gene (CHOAQLuci cells). Recombinant clones showing aequorin luminescence after the addition of 1 µM histamine were isolated. Starting with three independent primary cell clones three sets of tertiary clones were generated by two successive rounds of limiting dilution. Analysis of the primary clones as well as each subcloning by limiting dilution was monitored by "clone-pool analysis" comparing H4-transfected to mock-transfected (expression vector without H4 receptor cDNA) clones.
CHO-H4 cells were seeded at 2 x 10^4 cells per well in Biocoat poly-D-Lysine 96 well black/clear plates (BECTON DICKINSON, Franklin Lakes, US) in D-MEM/F12 medium supplemented with 10% FCS and 400 µg/ml Geneticin (Invitrogen GIBCO, Carlsbad, US) and 2 mM butylrate for O/N. The medium was removed and cells were loaded with 1 µM Fluo-3 (Molecular Probes, Eugene, USA) in loading solution (0.1% BSA, 20mM HEPES Hank's Buffer, 1mM probinecid) for 1 h. The loading buffer was removed and exchanged for fresh loading buffer. Cells were pretreated with various concentrations of test compounds and subjected to calcium mobilization measurement induced by 100 nM histamine by using FDSS6000.
Assay results in Assay 1 are shown in Examples and tables of the Examples below. The data corresponds to the compounds as yielded by solid phase synthesis and thus to levels of purity of about 40 to 90%. For practical reasons, the compounds are grouped in four classes of activity as follows: A IC50 20nM < B IC50 100nM C < IC50 500nM D

human H4, sequence (Q9H3N8 whole entry): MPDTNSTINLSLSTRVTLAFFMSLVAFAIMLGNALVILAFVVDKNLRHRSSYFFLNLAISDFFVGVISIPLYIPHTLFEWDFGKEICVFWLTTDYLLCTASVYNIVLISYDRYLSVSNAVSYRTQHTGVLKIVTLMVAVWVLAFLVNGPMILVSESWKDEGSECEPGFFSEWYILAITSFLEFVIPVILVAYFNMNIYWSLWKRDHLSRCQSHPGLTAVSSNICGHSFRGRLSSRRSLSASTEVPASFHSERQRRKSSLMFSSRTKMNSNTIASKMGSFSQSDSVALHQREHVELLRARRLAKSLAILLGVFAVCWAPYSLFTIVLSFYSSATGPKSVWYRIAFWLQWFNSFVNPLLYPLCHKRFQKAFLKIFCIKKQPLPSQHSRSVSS

First: CNC1CCN(c2cc(-c3ccccc3)nc(N)n2)C1 (stereo not drawn) [Example 1, 4-[3-(Methylamino)pyrrolidin-1-yl]-6-phenylpyrimidin-2-amine trihydrochloride]
Second: CN[C@H]1CCN(c2cc(-c3ccccc3)nc(N)n2)C1 [Example 8, 4-[(3S)-3-(methylamino)pyrrolidin-1-yl]-6-phenylpyrimidin-2-amine trihydrochloride]
The IC50 of the first is lower: less than 20 nM for the first, 20 to 100 nM for the second. The first is the more potent here.

First: CNC1CCN(c2cc(-c3cccc(C#N)c3)nc(N)n2)C1 (stereo not drawn) [Example 2, 3-{2-Amino-6-[3-(methylamino)pyrrolidin-1-yl]pyrimidin-4-yl}benzonitrile trihydrochloride]
Second: CN[C@@H]1CCN(c2cc(-c3cccc([N+](=O)[O-])c3)nc(N)n2)C1 [Example 6, 4-[(3R)-3-(methylamino)pyrrolidin-1-yl]-6-(3-nitrophenyl)pyrimidin-2-amine trihydrochloride]
The IC50 of the first is higher: 20 to 100 nM for the first, less than 20 nM for the second. The second is the more potent here.

First: Nc1nc(-c2ccccc2)cc(N2CCC(N)C2)n1 (stereo not drawn) [Example 3, 4-(3-aminopyrrolidin-1-yl)-6-phenylpyrimidin-2-amine trihydrochloride]
Second: CN[C@H]1CCN(c2cc(-c3cccc([N+](=O)[O-])c3)nc(N)n2)C1 [Example 7, 4-[(3 S)-3-(methylamino)pyrrolidin-1-yl]-6-(3-nitrophenyl)pyrimidin-2-amine trihydrochloride]
The IC50 of the first is lower: 20 to 100 nM for the first, 100 to 500 nM for the second. The first is the more potent here.
